Data as given in the supplement of paper PMC10307832.

Key:
Assay in all cases: relative viability (nuclei count vs DMSO), 5 days (fraction); higher = more cells survive
[1] = system: 201T
Method in brief: (§1)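 Dosing by pin tool came one day after lung cancer cell lines were seeded in 1536-well plates, using either one drug or a fixed anchor-drug dose plus five library-drug doses (not always all listed) in √10 steps. After 5 days, nuclei were counted on 4× images. Relative viability is treated-well nuclei count divided by vehicle-well nuclei count, and values are medians of duplicate plates.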

[2] = system: COR-L 105
Method in brief: as §1

[3] = system: ChaGo-K-1
Method in brief: as §1

[4] = system: EKVX
Method in brief: as §1

[5] = system: H3255
Method in brief: as §1

[6] = system: HARA
Method in brief: as §1

[7] = system: HCC-827
Method in brief: as §1

[8] = system: HOP-62
Method in brief: as §1

[9] = system: LOU-NH91
Method in brief: as §1

[10] = system: NCI-H1975
Method in brief: as §1

[11] = system: NCI-H2126
Method in brief: as §1

[12] = system: NCI-H2228
Method in brief: as §1

[13] = system: NCI-H23
Method in brief: as §1

[14] = system: NCI-H2405
Method in brief: as §1

[15] = system: NCI-H3122
Method in brief: as §1

[16] = system: NCI-H596
Method in brief: as §1

[17] = system: NCI-H727
Method in brief: as §1

[18] = system: PC-3 [JPC-3]
Method in brief: as §1

[19] = system: SK-LU-1
Method in brief: as §1

Compound: Cc1cn(-c2cc(NC(=O)c3ccc(C)c(Nc4nccc(-c5cccnc5)n4)c3)cc(C(F)(F)F)c2)cn1 [Nilotinib] + CC1(C)CCC(c2ccc(Cl)cc2)=C(CN2CCN(c3ccc(C(=O)NS(=O)(=O)c4ccc(N[C@H](CCN5CCOCC5)CSc5ccccc5)c(S(=O)(=O)C(F)(F)F)c4)cc3)CC2)C1 [Navitoclax] (partner 0.5 µM)
- relative viability ([1]; first compound 0.001 µM): 1.22
- relative viability ([1]; first compound 0.003162 µM): 1.29
- relative viability ([1]; first compound 0.01 µM): 1.25
- relative viability ([1]; first compound 0.1 µM): 1.21
- relative viability ([2]; first compound 0.001 µM): 0.709
- relative viability ([2]; first compound 0.01 µM): 0.696
- relative viability ([2]; first compound 0.03162 µM): 0.644
- relative viability ([2]; first compound 0.1 µM): 0.848
- relative viability ([3]; first compound 0.001 µM): 1.47
- relative viability ([3]; first compound 0.003162 µM): 0.924
- relative viability ([3]; first compound 0.01 µM): 1.06
- relative viability ([3]; first compound 0.03162 µM): 0.754
- relative viability ([3]; first compound 0.1 µM): 0.787
- relative viability ([4]; first compound 0.001 µM): 0.795
- relative viability ([4]; first compound 0.003162 µM): 1.29
- relative viability ([4]; first compound 0.01 µM): 1.42
- relative viability ([4]; first compound 0.03162 µM): 0.764
- relative viability ([4]; first compound 0.1 µM): 1.21
- relative viability ([5]; first compound 0.001 µM): 0.508
- relative viability ([5]; first compound 0.003162 µM): 0.479
- relative viability ([5]; first compound 0.01 µM): 0.541
- relative viability ([5]; first compound 0.03162 µM): 0.246
- relative viability ([5]; first compound 0.1 µM): 0.382
- relative viability ([6]; first compound 0.001 µM): 1.07
- relative viability ([6]; first compound 0.003162 µM): 1.26
- relative viability ([6]; first compound 0.01 µM): 1.24
- relative viability ([6]; first compound 0.03162 µM): 1.06
- relative viability ([6]; first compound 0.1 µM): 1.15
- relative viability ([7]; first compound 0.001 µM): 1.02
- relative viability ([7]; first compound 0.003162 µM): 1.08
- relative viability ([7]; first compound 0.01 µM): 1.1
- relative viability ([7]; first compound 0.1 µM): 1
- relative viability ([8]; first compound 0.001 µM): 0.832
- relative viability ([8]; first compound 0.003162 µM): 1.05
- relative viability ([8]; first compound 0.01 µM): 1.24
- relative viability ([8]; first compound 0.03162 µM): 0.94
- relative viability ([8]; first compound 0.1 µM): 0.454
- relative viability ([9]; first compound 0.001 µM): 0.644
- relative viability ([9]; first compound 0.003162 µM): 0.685
- relative viability ([9]; first compound 0.01 µM): 0.846
- relative viability ([9]; first compound 0.03162 µM): 0.608
- relative viability ([9]; first compound 0.1 µM): 0.658
- relative viability ([10]; first compound 0.001 µM): 0.904
- relative viability ([10]; first compound 0.003162 µM): 1.22
- relative viability ([10]; first compound 0.01 µM): 1.34
- relative viability ([10]; first compound 0.03162 µM): 0.694
- relative viability ([10]; first compound 0.1 µM): 0.976
- relative viability ([11]; first compound 0.001 µM): 0.861
- relative viability ([11]; first compound 0.003162 µM): 0.891
- relative viability ([11]; first compound 0.01 µM): 0.89
- relative viability ([11]; first compound 0.03162 µM): 0.846
- relative viability ([11]; first compound 0.1 µM): 0.82
- relative viability ([12]; first compound 0.001 µM): 0.662
- relative viability ([12]; first compound 0.003162 µM): 1.1
- relative viability ([12]; first compound 0.01 µM): 0.927
- relative viability ([12]; first compound 0.03162 µM): 0.826
- relative viability ([12]; first compound 0.1 µM): 0.763
- relative viability ([13]; first compound 0.001 µM): 0.78
- relative viability ([13]; first compound 0.003162 µM): 0.839
- relative viability ([13]; first compound 0.01 µM): 1.09
- relative viability ([13]; first compound 0.03162 µM): 0.605
- relative viability ([13]; first compound 0.1 µM): 0.721
- relative viability ([14]; first compound 0.001 µM): 0.733
- relative viability ([14]; first compound 0.003162 µM): 0.761
- relative viability ([14]; first compound 0.01 µM): 0.764
- relative viability ([14]; first compound 0.03162 µM): 0.596
- relative viability ([14]; first compound 0.1 µM): 0.439
- relative viability ([15]; first compound 0.001 µM): 1.09
- relative viability ([15]; first compound 0.003162 µM): 1.12
- relative viability ([15]; first compound 0.01 µM): 1.09
- relative viability ([15]; first compound 0.1 µM): 0.831
- relative viability ([16]; first compound 0.001 µM): 0.924
- relative viability ([16]; first compound 0.003162 µM): 1.12
- relative viability ([16]; first compound 0.01 µM): 1.13
- relative viability ([16]; first compound 0.03162 µM): 0.673
- relative viability ([16]; first compound 0.1 µM): 0.922
- relative viability ([17]; first compound 0.001 µM): 0.478
- relative viability ([17]; first compound 0.01 µM): 0.386
- relative viability ([17]; first compound 0.03162 µM): 0.385
- relative viability ([17]; first compound 0.1 µM): 0.253
- relative viability ([18]; first compound 0.001 µM): 0.699
- relative viability ([18]; first compound 0.003162 µM): 1
- relative viability ([18]; first compound 0.01 µM): 0.888
- relative viability ([18]; first compound 0.03162 µM): 0.666
- relative viability ([18]; first compound 0.1 µM): 0.741
- relative viability ([19]; first compound 0.001 µM): 0.703
- relative viability ([19]; first compound 0.003162 µM): 1.17
- relative viability ([19]; first compound 0.01 µM): 1.14
- relative viability ([19]; first compound 0.03162 µM): 0.582
- relative viability ([19]; first compound 0.1 µM): 0.827
